Earlier results in patent publication US11066360B2, “Human plasma kallikrein inhibitors” (priority 2015, dated 2021).
Where a SMILES comes first, the peptide text is derived from it.

Columns and labels:
[1] = test system: mouse model of middle cerebral artery occlusion (MCAO)
[2] = test system: LPS- or bacterial-induced sepsis in animals
[3] = test system: patients with hereditary angioedema (HAE); conditions: human, in vivo

For `Cl.NCC1CCC(C(=O)N[C@@H](Cc2ccccc2)C(=O)Nc2ccc(CC(=O)O)cc2)CC1` (some centres unmarked) [PKSI-527], which joint swelling (rat models of arthritis) is on record?
Its joint swelling is “reduce”.

For “C1-inhibitor: a physiological inhibitor (C1-inhibitor) [Compound C1-inhibitor]”, which infarct size [1] is on record?
The infarct size was “reduced”.

And the lesions [2]?
Its lesions is “reduce”.

And the “vascular permeability in multiple organs” value [2]?
The value was “reduce”.

And the “clinical improvement in sepsis patients” value (sepsis patients)?
Its value is “Clinical improvement”.

Which lesions [2] does the source give for `NC(N)=NCCC[C@H](NC(=O)[C@H](Cc1ccccc1)NC(=O)[C@H]1CCCN1)C(=O)CCl` [CMK, H-D-Pro-Phe-Arg-chloromethylketone] (HELM PEPTIDE1{[dP].F.R.[ClC[*:1]]}$$$$V2.0) here?
The lesions was “reduce”.

What about the “vascular permeability in multiple organs” value [2] of the same compound?
The value was “reduce”.

For `NC(N)=NCCC[C@@H](N)C(=O)N[C@@H](CCCN=C(N)N)C(=O)N1CCC[C@H]1C(=O)N1C[C@H](O)C[C@H]1C(=O)NCC(=O)N[C@@H](Cc1cccs1)C(=O)N[C@@H](CO)C(=O)N1Cc2ccccc2C[C@@H]1C(=O)N1[C@H](C(=O)N[C@@H](CCCN=C(N)N)C(=O)O)C[C@@H]2CCCC[C@@H]21` [Icatibant], which “treating HAE” value [3] is on record?
Its value is “effective”.
